Test system: MC38 syngeneic mouse tumor model
Assay: MC38 syngeneic mouse tumor model, tumor growth inhibition and survival (Example 1)
Format: in vivo
Method: MC38 cells were obtained from American Type Culture Collection (ATCC) and cultured in Roswell Park Memorial Institute (RPMI1640) supplemented with 10% fetal bovine serum (FBS). All cells were maintained in a humidified incubator at 37° C. with 5% carbon dioxide (CO2). Female C57/BL6 mice were obtained from Jackson Laboratories at 8 weeks of age. To generate the syngeneic model, 0.5 million MC38 tumor cells were subcutaneously implanted into the right flank of female C57/BL6 mice. Tumor bearing mice were randomized into six treatment groups based on average tumor sizes of approximately 70 mm^3 per group, on Day 9 post tumor cell implantation. […]
Tumor volumes were measured three times a week. Tumor volume was calculated based on two-dimensional caliper measurement with cubic millimeter volume calculated using the formula (length×width2)×0.5. […] Statistical significance determined using the Holm-Sidak method, with alpha=0.05.

In the case of `C[C@@]1(O)CCC[C@H]1n1c(=O)c(C(F)F)cc2cnc(NC3CCN(S(C)(=O)=O)CC3)nc21` [PF-06873600, 6-(difluoromethyl)-8-((1R,2R)-2-hydroxy-2-methylcyclopentyl)-2-(1-(methylsulfonyl)piperidin-4-ylamino)pyrido[2,3-d]pyrimidin-7(8H)-one], the “synergy with OX40/4-1BB immune checkpoint modulators (in words)” value (MC38 syngeneic mouse tumor model, example heading) is reported as “Synergizes” and the “tumor growth inhibition (in words)” value (MC38 tumors in C57/BL6 mice, Day 27 post-treatment initiation) is reported as “did not significantly inhibit tumor growth”.

— patent publication US20230053328A9, “COMBINATION THERAPIES USING CDK INHIBITORS” (Pfizer Inc., priority 2019, published 2023)
